{
  "source": "paper PMC5708526",
  "about": "“Targeting secondary protein complexes in drug discovery: studying the druggability and chemical biology of the HSP70/BAG1 complex” (Chemical Communications (Cambridge, England), 2017)",
  "key": {"BAG1": {"biological_target": "T1, BAG1 (Homo sapiens, UniProt Q99933)", "T1 construct": "purchased Enzo Life Sciences", "T1 sequence (Q99933 1-274 isoform Q99933-3)": "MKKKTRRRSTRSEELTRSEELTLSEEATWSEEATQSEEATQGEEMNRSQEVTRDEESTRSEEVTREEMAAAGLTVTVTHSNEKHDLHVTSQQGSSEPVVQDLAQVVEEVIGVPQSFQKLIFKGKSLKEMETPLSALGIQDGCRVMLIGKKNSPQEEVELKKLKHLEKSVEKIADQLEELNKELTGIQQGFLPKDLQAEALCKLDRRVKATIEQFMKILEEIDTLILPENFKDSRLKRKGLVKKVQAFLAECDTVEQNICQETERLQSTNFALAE", "assay": "FP of probes with BAG1 in the absence of HSP72", "format": "binding", "conditions": "10 nM probe, 1 µM BAG1", "experimental": "To assess what effect the secondary HSP72/BAG1 complex had on the apparent affinity of the non-nucleotide bisaryl-ATTO-488 FP-probe 11, we carried out a similar BAG1 study. […] To confirm that the binding of BAG1 to HSP72 was not mutually exclusive, we screened the nucleotides ADP and ATP in a competition assay with bisaryl-ATTO-488 11 and HSP72 at a 50% bound fraction, with and without a saturating concentration of BAG1 (700 nM) (Fig. S7, ESI ^†).\nFig. S4. Competitive displacement curve for bisarryl-ATTO-448 and HSP72 with compound 2. IC50 determination was performed using non-linear least squares curve fitting (GraphPad Prism 6, log(inhibitor) vs. response—variable slope (four parameters)), all data points were tested in triplicate and are represented as the arithmetic mean ± SEM. pKD=-log KD (M). pKD values are quoted as the geometric mean±SEM of n independent repeats.\nFig. S5. Bisaryl-ATTO-488 and ATP-ATTO-488 binding to truncated HSP72 and HSC70. Representative binding isotherms for bisaryl-ATTO-488 (blue) and ATP-ATTO-488 (red) binding to TR-HSP72 (aa 3-382) (•) and TR-HSC70 (aa 4-381) (x). KD determination was performed using non-linear regression analysis (one site–specific binding model), all data points were tested in triplicate and are represented as the arithmetic mean ± SEM. pKD=-log KD (M). pKD values are quoted as the geometric mean±SEM of n independent repeats.\nFig. S6. […]"}, "HSP72": {"biological_target": "T2, HSP72 (Homo sapiens, UniProt P0DMV8)", "T2 construct": "made in house", "T2 sequence (P0DMV8 whole entry)": "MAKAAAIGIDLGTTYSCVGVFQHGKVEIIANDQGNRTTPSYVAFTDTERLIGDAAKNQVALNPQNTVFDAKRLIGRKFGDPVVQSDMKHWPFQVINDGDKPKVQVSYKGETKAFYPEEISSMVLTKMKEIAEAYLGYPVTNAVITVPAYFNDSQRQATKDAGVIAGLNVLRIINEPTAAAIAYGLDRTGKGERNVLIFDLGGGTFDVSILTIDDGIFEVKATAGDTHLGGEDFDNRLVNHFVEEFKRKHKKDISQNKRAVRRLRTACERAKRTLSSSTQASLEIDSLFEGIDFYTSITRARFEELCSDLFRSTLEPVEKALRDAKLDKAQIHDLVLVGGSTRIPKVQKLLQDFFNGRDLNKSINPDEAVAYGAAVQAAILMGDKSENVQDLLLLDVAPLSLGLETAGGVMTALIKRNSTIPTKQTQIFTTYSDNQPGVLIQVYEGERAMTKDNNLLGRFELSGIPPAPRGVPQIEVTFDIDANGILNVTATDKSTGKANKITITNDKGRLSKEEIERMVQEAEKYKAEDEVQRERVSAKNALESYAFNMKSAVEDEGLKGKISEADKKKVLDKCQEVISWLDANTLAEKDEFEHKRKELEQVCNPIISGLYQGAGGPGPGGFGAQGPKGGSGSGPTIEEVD", "assay": "Fluorescence polarisation probe KD determination with full-length HSP72", "format": "binding", "experimental": "To determine the binding affinity of bisaryl FP-probe 11 for HSP72, increasing concentrations of the protein were titrated against a fixed concentration (10 nM) of the FP-probe. […] We speculated that this decrease in apparent KD was due to the slow hydrolysis of the ATP-probe to ADP-ATTO-488 + Pi. Although HSP72 has low intrinsic ATPase activity,[8] the high enzyme concentration could catalyse hydrolysis over the time-frame of the assay, with the initial KD values reflective of the known modest affinity of ATP for HSP70, whilst the final KD value was consistent with the higher affinity ADP ligand.[14] […]\nTRIS Tris(hydroxymethyl)aminomethane\nGeneral Information: Unless otherwise stated the aqueous assay buffer contained 50 mM TRIS base pH 7.4, 150 mM NaCl, 6 mM MgCl2, 1 mM DTT, 0.1% (wt/wt) CHAPS. The assay was conducted using 384 Plus F ProxiPlates (PerkinElmer) with a final assay volume of 10 μL. Plates were centrifuged at 1000 rpm for 1 minute prior to incubation and read using an 2103 Envision Multilable Plate Reader. Excitation and emission wavelengths used for green probes were 480 nm and 535 nm, respectively.\nFluorescence polarisation was measured in units of millipolarization (mP). All experiments were performed in triplicate, unless otherwise stated. Data were plotted and analysed using GraphPad Prism 6, graphical data represents the mean ± standard error of the mean for a single representative experiment. ATP-derived fluorescent probes (1.0 mM in aqueous) were purchased from Jena Bioscience. Human BAG-1M (10.9 μM in 20 mM TRIS base pH 7.4, 100 mM NaCl, 1 mM DTT, 1% (v/v) glycerol) was purchased from Enzo Life Sciences. […]\nFluorescence polarisation values for the tracer ± protein were plotted using GraphPad prism 6.\nFluorescent probe KD determination: To each well, 5 μL of probe molecule (20 nM in assay buffer) and increasing concentrations of HSP70 protein (5 μL, two-fold dilution series) were added. Fluorescence polarisation values for tracer control wells (10 nM probe in assay buffer only) were subtracted from each data point prior to data analysis. KD determination was performed using non-linear regression analysis (GraphPad Prism 6, one site–specific binding model). […]\nBAG-1 titration: To each well, ATP-ATTO488 and HSP70 at two times their final concentration (5 µL in assay buffer) was added and the plate incubated in the dark for 16 hours. Increasing concentrations of BAG1 protein (5 μL, two-fold dilution series in 20 […]\n(1 picture or pasted object on this page, not shown here)"}},
  "note": "Where two headings read alike, the source gives them in different places.",
  "data": [
    {"smiles": "CN(CCCC(=O)NCCCCCCNc1ncnc2c1nc(NCc1ccc3ncccc3c1)n2[C@@H]1O[C@H](COCc2ccc(C(F)(F)F)cc2)[C@@H](O)[C@H]1O)C(=O)c1ccccc1-c1c2ccc(=N)c(S(=O)(=O)O)c-2oc2c(S(=O)(=O)O)c(N)ccc12", "note": "[compound 11]", "values": [
      {"measurement": "interaction with BAG1 in the absence of HSP72", "setting": "BAG1", "result": "No interaction"},
      {"measurement": "interaction with BAG1 in the absence of HSP72", "setting": "BAG1; listed as bisaryl-ATTO-488", "result": "does not interact"},
      {"measurement": "time-dependency of affinity for HSP72", "setting": "HSP72", "result": "no apparent time-dependency"},
      {"measurement": "pKD", "setting": "HSP72; 10 nM probe, 0.1% (w/v) CHAPS, n = 4", "result": "6.72 ± 0.04"},
      {"measurement": "Kd", "setting": "HSP72; 10 nM probe, 0.1% (w/v) CHAPS, read-out: KD", "result": 194, "unit": "nM"},
      {"measurement": "pKD", "setting": "HSP72; 0.01% (v/v) Triton X-100, n = 3", "result": 6.83},
      {"measurement": "Kd", "setting": "HSP72; 0.01% (v/v) Triton X-100, read-out: KD", "result": 150, "unit": "nM"},
      {"measurement": "Kd", "setting": "HSP72; without BAG1, Fig. S7 isotherm, read-out: KD - BAG1", "result": 183, "unit": "nM"}
    ]}
  ]
}
